Assays:
Type in all cases: cell-based
[1] = tested on: HCC827 cells; experiment: NSCLC cell viability, CellTiter-Glo, HCC827 cells; details: Homo sapiens, HCC827, 72 h, read-out: Cell viability classification
Procedure: (§1) HCC827 cells were obtained from Korean Cell Line Bank (KCLB) and grown in RPMI supplemented with 10% FBS. The cells were maintained at 37° C. under 5% CO2.
(§2) The efficacy of the present disclosure to reduce viability of Non-Small Cell Lung Cancer (NSCLC) cells was assessed using CellTiter-Glo Cell Viability Assay (Promega) according to the manufacturer's protocol. […] The luminescence was normalized to that of DMSO-treated samples. IC50 values were obtained using three-parameter non-linear regressions using Prism (GraphPad).
The efficacy of additional compounds of the present disclosure in reducing HCC827 cell viability was determined by treating HCC827 cells at various concentrations (final DMSO concentration of 0.1%). Cell viability was measured using the CellTiter-Glo reagent after 72 hours of treatment.

[2] = biological target: T1, GSPT1 (Homo sapiens, UniProt P15170+Q96SW2); experiment: GSPT1 degradation, Western Blot, HCC827 cells, 1 μM, 16 hours; details: % reduction of GSPT1 compared to DMSO, normalized to GAPDH, read-out: GSPT1 degradation classification
T1 sequence (P15170 whole entry): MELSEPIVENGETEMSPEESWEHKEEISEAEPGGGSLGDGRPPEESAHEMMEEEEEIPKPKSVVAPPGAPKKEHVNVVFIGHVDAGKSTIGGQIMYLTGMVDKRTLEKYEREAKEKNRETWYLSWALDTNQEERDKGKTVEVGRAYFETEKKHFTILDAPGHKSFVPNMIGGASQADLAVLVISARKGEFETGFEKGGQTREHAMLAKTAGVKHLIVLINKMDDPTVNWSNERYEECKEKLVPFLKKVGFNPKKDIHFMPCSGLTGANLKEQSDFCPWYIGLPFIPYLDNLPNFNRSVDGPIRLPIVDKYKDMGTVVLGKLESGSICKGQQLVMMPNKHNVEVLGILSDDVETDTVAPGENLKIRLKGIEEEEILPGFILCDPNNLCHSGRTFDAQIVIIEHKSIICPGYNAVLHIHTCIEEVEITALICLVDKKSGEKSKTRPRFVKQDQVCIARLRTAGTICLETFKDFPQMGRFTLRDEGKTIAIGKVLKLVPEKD
T1 sequence (Q96SW2 whole entry): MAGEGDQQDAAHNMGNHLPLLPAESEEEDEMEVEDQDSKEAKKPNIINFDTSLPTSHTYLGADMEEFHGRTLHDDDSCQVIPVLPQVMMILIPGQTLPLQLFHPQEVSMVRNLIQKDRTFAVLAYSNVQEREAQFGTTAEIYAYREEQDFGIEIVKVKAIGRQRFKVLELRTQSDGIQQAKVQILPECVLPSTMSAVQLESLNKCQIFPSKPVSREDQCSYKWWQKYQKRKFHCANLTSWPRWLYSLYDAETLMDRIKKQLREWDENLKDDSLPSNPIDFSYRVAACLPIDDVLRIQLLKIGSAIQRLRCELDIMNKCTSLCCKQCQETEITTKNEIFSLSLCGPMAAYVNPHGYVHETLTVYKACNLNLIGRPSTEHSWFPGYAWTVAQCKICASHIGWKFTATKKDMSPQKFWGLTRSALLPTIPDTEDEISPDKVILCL
T1 sequence (Q16531 whole entry partner): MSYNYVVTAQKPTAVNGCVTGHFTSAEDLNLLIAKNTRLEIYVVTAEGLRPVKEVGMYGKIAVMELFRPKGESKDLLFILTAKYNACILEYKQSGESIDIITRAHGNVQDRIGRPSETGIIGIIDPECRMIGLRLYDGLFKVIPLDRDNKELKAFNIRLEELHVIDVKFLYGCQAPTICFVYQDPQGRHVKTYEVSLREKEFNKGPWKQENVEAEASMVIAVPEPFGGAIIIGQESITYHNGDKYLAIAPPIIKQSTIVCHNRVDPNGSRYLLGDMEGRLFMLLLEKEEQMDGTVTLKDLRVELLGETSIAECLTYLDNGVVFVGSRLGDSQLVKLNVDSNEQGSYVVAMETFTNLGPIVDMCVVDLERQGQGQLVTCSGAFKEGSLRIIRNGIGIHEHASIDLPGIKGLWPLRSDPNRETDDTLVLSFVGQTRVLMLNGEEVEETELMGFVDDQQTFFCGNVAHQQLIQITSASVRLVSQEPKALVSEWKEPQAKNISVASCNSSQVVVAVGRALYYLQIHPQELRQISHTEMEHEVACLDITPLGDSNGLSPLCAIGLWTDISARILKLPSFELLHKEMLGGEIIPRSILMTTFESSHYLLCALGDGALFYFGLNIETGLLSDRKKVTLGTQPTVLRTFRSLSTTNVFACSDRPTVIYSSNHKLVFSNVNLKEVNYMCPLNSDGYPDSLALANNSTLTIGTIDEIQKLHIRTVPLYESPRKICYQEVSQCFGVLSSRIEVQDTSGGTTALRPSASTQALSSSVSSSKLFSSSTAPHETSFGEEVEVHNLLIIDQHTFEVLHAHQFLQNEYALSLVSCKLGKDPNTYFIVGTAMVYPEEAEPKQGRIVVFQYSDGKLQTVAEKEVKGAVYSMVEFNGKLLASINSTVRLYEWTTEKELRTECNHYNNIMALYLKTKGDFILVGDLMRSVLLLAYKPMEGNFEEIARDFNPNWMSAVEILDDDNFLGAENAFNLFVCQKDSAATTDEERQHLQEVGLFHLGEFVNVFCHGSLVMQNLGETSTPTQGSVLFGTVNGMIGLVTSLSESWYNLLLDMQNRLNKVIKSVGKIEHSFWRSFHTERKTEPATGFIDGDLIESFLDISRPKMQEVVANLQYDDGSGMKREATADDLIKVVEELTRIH
Procedure: as §1
Compounds of the present disclosure was added to cells (final DMSO concentration of 0.1%) and incubated for 16 hours. GSPT1 levels were determined in HCC827 cells using Western Blot analysis. […] Protein levels were normalized to GAPDH levels.
The efficacy of GSPT1 degradation of a part of compounds of the present disclosure was determined by treating HCC827 cells at 1 μM (final DMSO concentration of 0.1%) for 16 hours. GSPT1 levels were determined using Western Blot and normalized to GAPDH levels.

[3] = tested on: A549 cells; experiment: NSCLC cell viability, CellTiter-Glo, A549 cells; details: Homo sapiens, 72 hours of treatment, read-out: Cell viability classification
Procedure: A549 cells were obtained from Korean Cell Line Bank (KCLB) and grown in RPMI supplemented with 10% FBS. The cells were maintained at 37° C. under 5% CO2.
as §2
The efficacy of additional compounds of the present disclosure in reducing A549 cell viability was determined by treating A549 cells at various concentrations (final DMSO concentration of 0.1%). Cell viability was measured using the CellTiter-Glo reagent after 72 hours of treatment.

[4] = biological target: T1, GSPT1; experiment: GSPT1 degradation, Western Blot, A549 cells, 1 μM, 16 hours; details: % reduction of GSPT1 compared to DMSO, normalized to GAPDH, read-out: GSPT1 degradation classification
Procedure: Compounds of the present disclosure was added to cells (final DMSO concentration of 0.1%) and incubated for 16 hours. GSPT1 levels were determined in A549 cells using Western Blot analysis. […] Protein levels were normalized to GAPDH levels.
The efficacy of GSPT1 degradation of a part of compounds of the present disclosure was determined by treating A549 cells at 1 μM (final DMSO concentration of 0.1%) for 16 hours. GSPT1 levels were determined using Western Blot and normalized to GAPDH levels.

Compound	IC50 [1] [nM]	inhibition at 1 µM [2] [%]	IC50 [3] [nM]	inhibition at 1 µM [4] [%]
O=C1CCC(N2Cc3cc(C(=O)N4Cc5cccc(F)c5C4)ccc3C2=O)C(=O)N1 (centres unmarked) [Example 87, 3-(5-(4-fluoroisoindoline-2-carbonyl)-1-oxoisoindolin-2-yl)piperidine-2,6-dione]	< 1000	> 75	–	–
O=C1CCC(N2Cc3cc(C(=O)N4Cc5ccc(F)cc5C4)ccc3C2=O)C(=O)N1 (centres unmarked) [Example 88, 3-(5-(5-fluoroisoindoline-2-carbonyl)-1-oxoisoindolin-2-yl)piperidine-2,6-dione]	< 1000	> 75	–	–
O=C1CCC(N2Cc3cc(C(=O)Nc4csc5ccccc45)c(F)cc3C2=O)C(=O)N1 (centres unmarked) [Example 91, N-(benzo[b]thiophen-3-yl)-2-(2,6-dioxopiperidin-3-yl)-6-fluoro-1-oxoisoindoline-5-carboxamide]	–	–	< 1000	> 75
O=C1CCC(N2Cc3cc(C(=O)NC4CCCCC4)ccc3C2=O)C(=O)N1 (centres unmarked) [Example 96, N-cyclohexyl-2-(2,6-dioxopiperidin-3-yl)-1-oxoisoindoline-5-carboxamide]	–	–	1000 to 30000	50 to 75

Source: US20260285872A1, “COMPOUNDS AND METHODS FOR DEGRADING GSPT1” (priority 2023, published 2026)
